Literature values, collected in patent US12336999B2, “Modified release formulations of 2-[3-[4-amino-3-(2-fluoro-4-phenoxy-phenyl) pyrazolo[3,4-d] pyrimidin-1-yl]piperidine-1-carbonyl]-4-methyl-4-[4-(oxetan-3-yl) piperazin-1-yl]pent-2-enenitrile” (Principia Biopharma Inc., priority 2016, dated 2025).
Where two headings read alike, the source gives them in different places.

bioavailability as determined by AUC (administered intraduodenally): 100%
bioavailability as determined by AUC (direct oral administration): 21%
SMILES: C=CC(=O)N1CCC[C@@H](n2nc(-c3ccc(Oc4ccccc4)cc3)c3c(N)ncnc32)C1 [ibrutinib]
